# Experimental data published in patent US20050020613A1, “Sustained release opioid formulations and method of use” (priority 2002, published 2005).
# Where two headings read alike, the source gives them in different places.
# Assay type: in vivo
# [1] = dose equianalgesic to a 15 mg dose of hydrocodone
Compound,Equianalgesic Doses of Opioids: Calculated Dose [1] [mg],Equianalgesic Doses of Opioids: Calculated Dose (in vivo) [mg]
COc1ccc2c3c1O[C@H]1[C@@H](O)C=C[C@H]4[C@@H](C2)N(C)CC[C@@]341 [Codeine],90.0,–
"COc1ccc2c3c1OC1C(=O)CC[C@H]4[C@@H](C2)N(C)CC[C@]314 (stereo partly shown) [Hydrocodone, 4,5-epoxy-3-methoxy-17-methylmorphinan-6-one]",15.0,–
CN1CC[C@]23CCCC[C@H]2[C@H]1Cc1ccc(O)cc13 [Levorphanol],1.8,–
CCC(=O)C(CC(C)N(C)C)(c1ccccc1)c1ccccc1 (stereo not shown) [Methadone],9.0,–
CN1CC[C@]23c4c5ccc(O)c4O[C@H]2[C@@H](O)C=C[C@H]3[C@H]1C5 [Morphine],–,27.0
"COc1ccc2c3c1OC1C(=O)CC[C@@]4(O)[C@@H](C2)N(C)CC[C@]314 (stereo partly shown) [Oxycodone, 4,5-epoxy-14-hydroxy-3-methoxy-17-methylmorphinan-6-one]",13.5,–
Meperidine,135.0,–
